Results published in EP0195397A1, “m-Cyanophenethanolamines as animal growth promoters and antilipogenic agents” (AMERICAN CYANAMID COMPANY, priority 1985, dated 1986).
Like-named read-outs stand apart in the source and are kept apart here.

What was measured:
[1] = Evaluation of test compounds as animal growth promoters and antilipogenic agents - mouse test; type: in vivo, CFI female mice; conditions: 12-day test period; for Gain (grams): weight gain per cage of ten mice; for % Reduction in fat pad weight vs controls: right uterine fat pad, minus sign = reduction
Method: CFI female mice from Carworth Farms are received when they are six-weeks old. They are housed ten to a cage in air-conditioned rooms (22 °C to 25 °C) with automatically-controlled lights, 14 hours on and ten hours off. The basal diet used in these studies is Purina Laboratory Chow (see description below) which is supplied ad libitum. The following is a description of the diet to which the growth-promoting compounds were added. Thirteen days after arrival, the mice are weighed in groups of ten and assigned at random to the different treatments. Each of the treatments is tested in three replicates, i.e., in three cages of ten mice each. There are ten cages of ten control mice each. Drugs are mixed in the diet at the dosage level indicated. Feed and water are offered ad libitum for a 12-day test period. Feed spilled is collected during the test period. At the end of the test period, the collected feed is weighed, and the mean feed consumption per cage of ten mice is determined for each treatment. The mice are weighed as a group of ten, and the weight gain determined. The mice are sacrificed by cervical dislocation. The right uterine fat pad of each mouse is removed. The fat pads for each cage of ten mice are weighed as a unit. Reduction in fat pad weights of animals is generally indicative of a reduction of total body fat of the treated animals.

[2] = target: T1, Beta-1 adrenergic receptor membranes (Meleagris gallopavo, UniProt P07700); assay: Beta-1 adrenergic activity by (H3) dihydroalprenolol radioligand binding to receptor membranes; parameters: species or system turkey
T1 construct: Freshly drawn heparinized whole blood from turkeys and rats is centrifuged; from tissue; host or cells: erythrocyte membranes from freshly drawn turkey blood
T1 sequence (P07700 whole entry): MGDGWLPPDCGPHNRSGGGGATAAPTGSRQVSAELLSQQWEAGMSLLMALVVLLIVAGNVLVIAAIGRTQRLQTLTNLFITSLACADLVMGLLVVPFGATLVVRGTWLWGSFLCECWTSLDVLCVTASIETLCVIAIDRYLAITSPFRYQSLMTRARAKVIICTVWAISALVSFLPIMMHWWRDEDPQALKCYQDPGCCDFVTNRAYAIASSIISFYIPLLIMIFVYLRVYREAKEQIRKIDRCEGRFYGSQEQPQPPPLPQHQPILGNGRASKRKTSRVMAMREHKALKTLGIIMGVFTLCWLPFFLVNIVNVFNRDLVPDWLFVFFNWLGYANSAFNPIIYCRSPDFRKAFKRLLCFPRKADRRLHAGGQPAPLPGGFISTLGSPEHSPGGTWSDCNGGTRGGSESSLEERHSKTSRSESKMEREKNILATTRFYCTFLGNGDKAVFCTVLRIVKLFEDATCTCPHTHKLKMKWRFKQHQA
Method: Beta-1 adrenergic activity of experimental compounds is identified by radioactive ligand-binding studies by using beta adrenergic receptor membranes and adrenergic antagonist (H3) dihydroalprenolol (DHA). Binding of (H3) DHA to membrane fractions is assayed by filtration on glass fiber filters. Specific binding is defined as total radioactivity bound minus nonspecific bound radioactivity, i.e., binding in the presence of 100 µM non-radioactive DHA. Results are expressed as the concentrations of the compound required to displace […] radioactive ligand from binding of beta adrenergic receptors (K-50).
In these tests, beta adrenergic receptor membranes are incubated with radioactive dihydroalprenolol (H3 DHA) and experimental compounds. The bound radio- ligand is separated by filtration on glass fiber filters and counted by scintillation counter.
Beta-1 adrenergic receptor membranes are isolated from turkey and rat erythrocytes respectively using the procedures of: • Hancock, A., DeLean, A., Lefkowitz, R. J. Mol. Pharmacol. 16:1, 1979; • DeLean, A, Hancock A., Lefkowitz, R. J. Mol. Pharmacol. 21:5, 1979; or • Lefkowitz, R. J., Stadel, J. M., and Caron, M. G. Ann. Rev. Biochem 52:157, 1983.
Freshly drawn heparinized whole blood from turkeys and rats is centrifuged for five minutes ([…]). The plasma is withdrawn; the remaining erythrocytes are suspended in 150mM sodium chloride solutions and centrifuged. The cells are resuspended and centrifuged twice more. […] The protein concentration of receptor membranes is determined by the biuret method.
To duplicate incubation, tubes are added 200 µl suspended membranes (200 µg protein), 25 µl of compound in solution or buffer and 25 µl (H3) dihydroalprenolol ([…]). […] The filters are rinsed three times with 5 mL of cold buffer (145 mM NaCl, 1 mM ethylenediaminetetraacetic acid, and 10 mM tris, pH 7.4) and subsequently counted by liquid scintillation counter in 10 mL of aquasol. […]

[3] = concentration required to displace 50% radioactive ligand ((H3) DHA), 23°C, one hour, read-out: β1 K-50

| SMILES | Gain (grams) ([1]; 3 ppm in diet) | Gain (grams) ([1]; 6 ppm in diet) | Gain (grams) ([1]; 12 ppm in diet) | % Reduction in fat pad weight vs controls ([1]; 25 ppm in diet) | Gain (grams) ([1]; 25 ppm in diet) | % Reduction in fat pad weight vs controls ([1]; 50 ppm in diet) | Gain (grams) ([1]; 50 ppm in diet) | % Reduction in fat pad weight vs controls ([1]; 100 ppm in diet) | Gain (grams) ([1]; 100 ppm in diet) | Gain (grams) ([1]; 200 ppm in diet) | IC50 [2, 3] | IC50 [2] |
| --- | --- | --- | --- | --- | --- | --- | --- | --- | --- | --- | --- | --- |
| CC(C)(C)NCC(O)c1cccc(C#N)c1 (stereo not drawn) [the 3rd table drawing] | 29.3 grams | 37.4 grams | 30.5 grams | +5.2% | 35.9 grams | -11.6% | 41.1 grams | -16.9% | 36.1 grams | 33.2 grams | – | – |
| CC(C)(C)NCC(O)c1cccc(C#N)c1 (stereo not drawn) [the 4th table, row 5 drawing] | – | – | – | – | – | – | – | – | – | – | > 100 µM | – |
| CC(C)NCC(O)c1cccc(C#N)c1 (stereo not drawn) [the 2nd table drawing] | 32.4 grams | 23.4 grams | 29.4 grams | – | 37.1 grams | – | 37.4 grams | -9.1% | 37.3 grams | 39.0 grams | – | – |
| CC(C)NCC(O)c1cccc(C#N)c1 (stereo not drawn) [the 4th table, row 4 drawing] | – | – | – | – | – | – | – | – | – | – | > 100 µM | – |
| CC(C)(C)NCC(O)c1cc(Cl)c(N)c(Cl)c1 (stereo not drawn) [Clenbuterol, reference compound] | – | – | – | – | – | – | – | – | – | – | – | 0.977 µM |
